Reference: the NIST ThermoML archive (doi:10.1016/j.jct.2008.12.021)

Assay: osmotic coefficient (dimensionless); mn = molality of the nth substance listed, in mol/kg
Conditions: 323.15 K, Liquid, vapour pressure osmometer

COS(=O)(=O)[O-].Cn1cc[n+](C)c1 [1,3-dimethylimidazolium methylsulfate] + CCCO
Conditions | osmotic coefficient
m1 = 0.0512 | 0.848
m1 = 0.079 | 0.772
m1 = 0.0997 | 0.727
m1 = 0.2023 | 0.67
m1 = 0.2902 | 0.59
m1 = 0.3952 | 0.544
m1 = 0.488 | 0.526
m1 = 0.6881 | 0.492
m1 = 0.9815 | 0.454
m1 = 1.299 | 0.432
m1 = 1.691 | 0.396
m1 = 2.097 | 0.375
m1 = 2.545 | 0.36
m1 = 2.929 | 0.343
m1 = 3.323 | 0.334
m1 = 3.71 | 0.322

COS(=O)(=O)[O-].Cn1cc[n+](C)c1 [1,3-dimethylimidazolium methylsulfate] + CC(C)O
Conditions | osmotic coefficient
m1 = 0.0241 | 0.914
m1 = 0.0557 | 0.846
m1 = 0.2089 | 0.683
m1 = 0.3053 | 0.614
m1 = 0.3982 | 0.588
m1 = 0.6947 | 0.509
m1 = 0.9721 | 0.461
m1 = 1.274 | 0.442
m1 = 1.66 | 0.416
m1 = 2.058 | 0.392
m1 = 2.447 | 0.364
m1 = 2.827 | 0.343
m1 = 3.313 | 0.329
m1 = 3.712 | 0.323
m1 = 4.112 | 0.298

CCCCn1cc[n+](C)c1.COS(=O)(=O)[O-] [1-butyl-3-methylimidazolium methyl sulfate] + CCO
Conditions | osmotic coefficient
m1 = 0.0495 | 0.78
m1 = 0.0783 | 0.716
m1 = 0.176 | 0.646
m1 = 0.3283 | 0.573
m1 = 0.3907 | 0.55
m1 = 0.5167 | 0.529
m1 = 0.6846 | 0.508
m1 = 0.9851 | 0.496
m1 = 1.318 | 0.499
m1 = 1.727 | 0.48
m1 = 2.093 | 0.474
m1 = 2.507 | 0.465
m1 = 2.914 | 0.448
m1 = 3.311 | 0.424
m1 = 3.697 | 0.408

COS(=O)(=O)[O-].Cn1cc[n+](C)c1 [1,3-dimethylimidazolium methylsulfate] + CCO
Conditions | osmotic coefficient
m1 = 0.0289 | 0.815
m1 = 0.0374 | 0.794
m1 = 0.0789 | 0.719
m1 = 0.0991 | 0.687
m1 = 0.1941 | 0.626
m1 = 0.3285 | 0.56
m1 = 0.4326 | 0.53
m1 = 0.5312 | 0.503
m1 = 0.6925 | 0.479
m1 = 0.9868 | 0.449
m1 = 1.284 | 0.424
m1 = 1.699 | 0.399
m1 = 2.078 | 0.382
m1 = 2.489 | 0.363
m1 = 2.937 | 0.345
m1 = 3.314 | 0.326
m1 = 3.709 | 0.325
m1 = 4.016 | 0.331

CCCCn1cc[n+](C)c1.COS(=O)(=O)[O-] [1-butyl-3-methylimidazolium methyl sulfate] + CCCO
Conditions | osmotic coefficient
m1 = 0.0437 | 0.873
m1 = 0.0547 | 0.829
m1 = 0.2041 | 0.691
m1 = 0.3571 | 0.639
m1 = 0.5002 | 0.628
m1 = 0.6627 | 0.628
m1 = 0.8487 | 0.629
m1 = 1.007 | 0.629
m1 = 1.28 | 0.628
m1 = 1.665 | 0.62
m1 = 2.143 | 0.599
m1 = 2.937 | 0.581

CCCCn1cc[n+](C)c1.COS(=O)(=O)[O-] [1-butyl-3-methylimidazolium methyl sulfate] + CC(C)O
Conditions | osmotic coefficient
m1 = 0.0524 | 0.95
m1 = 0.0842 | 0.905
m1 = 0.1084 | 0.871
m1 = 0.2087 | 0.799
m1 = 0.3036 | 0.733
m1 = 0.4106 | 0.685
m1 = 0.4869 | 0.648
m1 = 0.682 | 0.588
m1 = 0.9823 | 0.523
m1 = 1.32 | 0.493
m1 = 1.692 | 0.488
m1 = 2.05 | 0.502
m1 = 2.446 | 0.48
m1 = 2.829 | 0.455
m1 = 3.311 | 0.451
